Results published in patent publication US20240391870A1 (Arcturus Therapeutics, Inc., priority 2023, published 2024).

How the values were obtained:
[1] = In vivo biodegradability assay (lipid in liver); conditions: mouse liver, 48 h
[2] = Measured pKa in the indicated formulation; conditions: for pKa: EPO: measured in EPO formulation; for pKa: FVII: measured in FVII formulation
Procedure: Measured pKa values were determined based on the pH measured in the indicated formulation (i.e., EPO or FVII formulation).

hEPO = hEPO mRNA expression evaluation (hEPO-LNPs); format: in vivo, Balb/c mice; conditions: serum hEPO after 6 hr; for EPO exprssn (ng/mL) 0.03 mpk: 0.03 mpk i.v.; for EPO exprssn (ng/mL) 0.1 mpk: 0.1 mpk i.v.
Procedure: Protocol for hEPO mRNA Expression Evaluation
Lipid formulations comprising a hEPO mRNA below were evaluated for their ability to express hEPO in vivo according to the protocol of this example. All animal experiments were conducted using institutionally-approved protocols (IACUC). In this protocol, female Balb/c mice at least 6-8 weeks of age were purchased from Charles River Laboratory. […] After 6 hr, blood was collected with serum separation tubes, and the serum was isolated by centrifugation. Serum hEPO levels were then measured using an ELISA assay (Human Erythropoietin Quantikine IVD ELISA Kit, R&D Systems, Minneapolis, MD).

Mouse plasma stability = format: in vitro ADME, CD-1 mouse; conditions: 1 uM lipid
Procedure: Lipid stock solution was prepared by dissolution of the lipid in isopropanol at the concentration of 5 mg/mL. A requisite volume of the lipid-isopropanol solution was then diluted to 100 μM concentration at a total volume of 1.0 mL with in 50:50 (v/v) ethanol/water. Ten microliters of this 100 μM solution was spiked into 1.0 mL of mouse plasma (BioIVT, Cat. No.: MSE00PLNHUNN, CD-1 mouse, anticoagulant: sodium heparin, not filtered) that was pre-warmed to 37° C. and was stirred at 50 rpm with a magnetic stir bar. The starting concentration of lipids in plasma was thus 1 μM. At time points 0, 15, 30, 45, 60 and 120 min, 0.1 mL of the plasma was withdrawn from the reaction mixture and the protein was precipitated by adding 0.9 mL of ice-cold 4:1 (v/v) acetonitrile/methanol with 1 μg/mL of a selected internal standard lipid added. After filtration through a 0.45 micron 96-well filtering plate, the filtrates were analyzed by LC-MS (Thermo Fisher's Vanquish UHPLC—LTQ XL linear ion trap Mass Spectrometer); Waters XBridge BEH Shield RP18 2.5 micron (2.1×100 mm) column with its matching guard column. Mobile phase A was 0.1% formic acid in water, and mobile phase B was 0.1% formic acid in 1:1 (v/v) acetonitrile/methanol. Flow rate was 0.5 ml/min. Elution gradient was: Time 0-1 min: 10% B; 1-6 min: 10%-95% B; 6-8.5 min: 95% B; 8.5-9 min: 95%-10% B; 9-10 min: 10% B. Mass spectrometry was in positive scanning mode from 600-1100 m/z. The peak of the molecular ion of the lipids was integrated in the extracted ion chromatography (XIC) using Xcalibur software (Thermo Fisher). The relative peak area compared to T=0, after normalization by the peak area of the internal standard, was used as the percentage of the lipid remaining at each time point. T1/2 values were calculated using the first-order decay model.

factor VII = assay: Factor VII knock down evaluation (LNP with FVII siRNA); format: in vivo, Balb/C mice; conditions: plasma FVII after 48 h vs saline control; for FVII KD % 0.01 mpk: 0.01 mpk i.v.; for FVII KD % 0.03 mpk: 0.03 mpk i.v.
Procedure: Lipid formulations comprising a FVII siRNA further described below were evaluated for their knockdown activity using the protocol of this example. In the FVII evaluation, seven to eight week-old, female Balb/C mice were purchased from Charles River Laboratories (Hollister, CA). The mice were held in a pathogen-free environment and all procedures involving the mice were performed in accordance with guidelines established by the Institutional Animal Care and Use Committee (IACUC). Lipid nanoparticles containing factor VII siRNA were administered intravenously at a dosing volume of 10 mL/kg and two dose levels (0.03 and 0.01 mg/kg). After 48 h, the mice were anesthetized with isoflurane and blood was collected retro-orbitally into Microtainer® tubes coated with 0.109 M sodium citrate buffer (BD Biosciences, San Diego, CA) and processed to plasma. Plasma specimens were tested for factor VII levels immediately or stored at −80° C. for later analysis. Measurement of FVII protein in plasma was determined using the colorimetric Biophen VII assay kit (Aniara Diagnostica, USA). Absorbance was measured at 405 nm and a calibration curve was generated using the serially diluted control plasma to determine levels of factor VII in plasma from treated animals, relative to the saline-treated control animals.

SMILES | In vivo degradability (ng/tissue) at 48h 0.03 mpk ([1]; Table 1) | In vivo degradability (ng/tissue) at 48h 0.1 mpk ([1]; Table 1) | In vivo degradability (ng/tissue) at 48h 0.03 mpk ([1]; Table 2) | In vivo degradability (ng/tissue) at 48h 0.1 mpk ([1]; Table 2) | pKa ([2]; EPO formulation) | pKa: EPO ([2]; Table 2) | EPO exprssn (ng/mL) 0.03 mpk (hEPO; Table 1) [ng/mL] | EPO exprssn (ng/mL) 0.1 mpk (hEPO; Table 1) [ng/mL] | EPO exprssn (ng/mL) 0.03 mpk (hEPO; Table 2) [ng/mL] | EPO exprssn (ng/mL) 0.1 mpk (hEPO; Table 2) [ng/mL] | Percent remaining in mouse plasma after 2 h (Mouse plasma stability; Table 1, mouse plasma 37 C) [%] | Percent remaining in mouse plasma after 2 h (Mouse plasma stability; Table 2, mouse plasma 37 C) [%] | FVII KD % 0.01 mpk (factor VII; Table 1) [%] | FVII KD % 0.03 mpk (factor VII; Table 1) [%] | FVII KD % 0.01 mpk (factor VII; Table 2) [%] | FVII KD % 0.03 mpk (factor VII; Table 2) [%] | pKa ([2]; FVII formulation) | pKa: FVII ([2]; Table 2) | pKa: EPO ([2]; Table 1) | pKa: FVII ([2]; Table 1)
CCCCCCCC(=O)OCC(COC(=O)CCCCCCC)OC(=O)CCCC(CCCC(=O)OC(COC(=O)CCCCCCC)COC(=O)CCCCCCC)SC(=O)CCCN(C)C [LIPID 4, bis(1,3-bis(Octanoyloxy)propan-2-yl) 5-((4-(dimethylamino)butanoyl)thio)nonanedioate] | BLOQ | BLOQ | BLOQ | BLOQ | 6.22 | (6.22/ND) | 392 | 1108 | 392 | 1108 | 13 | 13 | 71 | 33 | 71 | 33 | – | – | – | –
CCCCCCCCC(=O)OCC(COC(=O)CCCCCCCC)COC(=O)CCN(CCC(=O)OCC(COC(=O)CCCCCCCC)COC(=O)CCCCCCCC)C(=O)SCCCN(C)C [LIPID 14] | <340 ng/tissue | <340 ng/tissue | <340 ng/tissue | <340 ng/tissue | 7.19 | 7.19 | – | – | – | 1152 | 116 | 100 | 65 | 90 | 65 | 90 | 6.86 | 6.86 | – | –
CN(C)CCCSC(=O)N(CCCC(=O)OC(COC(=O)CCC1CCCCC1)COC(=O)CCC1CCCCC1)CCCC(=O)OC(COC(=O)CCC1CCCCC1)COC(=O)CCC1CCCCC1 [LIPID 10, ((4,4′-((((3-(Dimethylamino)propyl)thio)carbonyl)azanediyl)bis(butanoyl))bis(oxy))bis(propane-2,1,3-triyl)tetrakis(3-cyclohexylpropanoate)] | BLOQ | BLOQ | BLOQ | BLOQ | 6.46 | 6.46 | 387 | 1179 | 387 | 1179 | 36 | 36 | 92 | 83 | 92 | 83 | 6.67 | 6.67 | – | –
CN(C)CCCSC(=O)N(CCCCCC(=O)OC(COC(=O)CCC1CCCCC1)COC(=O)CCC1CCCCC1)CCCCCC(=O)OC(COC(=O)CCC1CCCCC1)COC(=O)CCC1CCCCC1 [LIPID 12, ((6,6′-((((3-(Dimethylamino)propyl)thio)carbonyl)azanediyl)bis(hexanoyl))bis(oxy))bis(propane-2,1,3-triyl)tetrakis(3-cyclohexylpropanoate)] | BLOQ | BLOQ | BLOQ | BLOQ | 6.46 | 6.46 | 286 | 768 | 286 | 768 | 57 | 57 | 91 | 69 | 91 | 69 | 6.61 | 6.61 | – | –
CCC1CCC(C(=O)OCC(COC(=O)C2CCC(CC)CC2)OC(=O)CCCN(CCCC(=O)OC(COC(=O)C2CCC(CC)CC2)COC(=O)C2CCC(CC)CC2)C(=O)SCCCN(C)C)CC1 (stereo not drawn) [LIPID 16, ((4,4′-((((3-(Dimethylamino)propyl)thio)carbonyl)azanediyl)bis(butanoyl))bis(oxy))bis(propane-2,1,3-triyl)tetrakis(4-ethylcyclohexane-1-carboxylate)] | <340 ng/tissue | <340 ng/tissue | <340 ng/tissue | <340 ng/tissue | 6.5 | – | 2088 | 6358 | – | 2088 | 40 | 40 | 58 | 88 | 58 | 88 | 6.45 | – | (6.50/ | 6.45)
CCCCCCCCC(=O)OCC(COC(=O)CCCCCCCC)OC(=O)CCCC(CCCC(=O)OC(COC(=O)CCCCCCCC)COC(=O)CCCCCCCC)OC(=O)CCCN(C)C.Cl [LIPID 3, bis(1,3-bis(Nonanoyloxy)propan-2-yl) 5-((4-(dimethylamino)butanoyl)oxy)nonanedioate HCl Salt] | BLOQ | BLOQ | BLOQ | BLOQ | 6.41 | 6.41 | 191 | 471 | 191 | 471 | 15 | 15 | 51 | 87 | 51 | 87 | 6.49 | 6.49 | – | –
